Data reported in the NIST ThermoML archive (doi:10.1016/j.jct.2005.04.018).

Details: Liquid; for speed of sound: Linear variable-path acoustic interferometer; for mass density: Vibrating tube method

CCCC[n+]1ccn(C)c1.O=S(=O)([N-]S(=O)(=O)C(F)(F)F)C(F)(F)F
Details	mass density [kg/m3]	speed of sound [m/s]
283.15 K, 100 kPa	–	1264.5
283.15 K, 5090 kPa	–	1280.8
283.15 K, 9980 kPa	–	1296.8
283.15 K, 20020 kPa	–	1327.9
283.15 K, 29950 kPa	–	1357.3
283.15 K, 44830 kPa	–	1398.7
283.15 K, 59710 kPa	–	1437.5
283.15 K, 79700 kPa	–	1486.8
283.15 K, 98920 kPa	–	1531.3
283.15 K, 124410 kPa	–	1586.6
283.15 K, 151000 kPa	–	1640.5
293.15 K, 100 kPa	–	1238.1
293.15 K, 5000 kPa	–	1254.6
293.15 K, 10020 kPa	–	1271.2
293.15 K, 20010 kPa	–	1302.5
293.15 K, 59650 kPa	–	1411.8
293.15 K, 99720 kPa	–	1505.9
293.15 K, 151200 kPa	–	1611.9
298.15 K, 100 kPa	1437.04	–
298.15 K, 5000 kPa	1440.78	–
298.15 K, 7460 kPa	1442.64	–
298.15 K, 9920 kPa	1444.45	–
298.15 K, 12380 kPa	1446.22	–
298.15 K, 14840 kPa	1447.99	–
298.15 K, 17300 kPa	1449.71	–
298.15 K, 19760 kPa	1451.41	–
298.15 K, 22210 kPa	1453.09	–
298.15 K, 24670 kPa	1454.75	–
298.15 K, 27130 kPa	1456.4	–
298.15 K, 29590 kPa	1458.04	–
298.15 K, 32050 kPa	1459.61	–
298.15 K, 34510 kPa	1461.19	–
298.15 K, 36970 kPa	1462.78	–
298.15 K, 39430 kPa	1464.31	–
298.15 K, 41880 kPa	1465.81	–
298.15 K, 44340 kPa	1467.33	–
298.15 K, 46800 kPa	1468.8	–
298.15 K, 49260 kPa	1470.28	–
298.15 K, 51720 kPa	1471.69	–
298.15 K, 54180 kPa	1473.13	–
298.15 K, 56640 kPa	1474.55	–
298.15 K, 59100 kPa	1475.94	–
303.14 K, 100 kPa	1432.49	–
303.14 K, 5000 kPa	1436.13	–
303.14 K, 7460 kPa	1437.93	–
303.14 K, 9920 kPa	1439.73	–
303.14 K, 12380 kPa	1441.51	–
303.14 K, 14840 kPa	1443.23	–
303.14 K, 17300 kPa	1444.96	–
303.14 K, 19760 kPa	1446.65	–
303.14 K, 22210 kPa	1448.37	–
303.14 K, 24670 kPa	1449.99	–
303.14 K, 27130 kPa	1451.64	–
303.14 K, 29590 kPa	1453.25	–
303.14 K, 32050 kPa	1454.87	–
303.14 K, 34510 kPa	1456.47	–
303.14 K, 36970 kPa	1458.05	–
303.14 K, 39430 kPa	1459.6	–
303.14 K, 41880 kPa	1461.17	–
303.14 K, 44340 kPa	1462.67	–
303.14 K, 46800 kPa	1464.2	–
303.14 K, 49260 kPa	1465.69	–
303.14 K, 51720 kPa	1467.16	–
303.14 K, 54180 kPa	1468.67	–
303.14 K, 56640 kPa	1470.14	–
303.14 K, 59100 kPa	1471.59	–
303.15 K, 100 kPa	–	1217.5
303.15 K, 5030 kPa	–	1234
303.15 K, 10000 kPa	–	1250.7
303.15 K, 20030 kPa	–	1282.8
303.15 K, 59720 kPa	–	1393.5
303.15 K, 98960 kPa	–	1485.9
303.15 K, 150840 kPa	–	1592.9
308.09 K, 100 kPa	1427.92	–
308.09 K, 5000 kPa	1431.5	–
308.09 K, 7460 kPa	1433.28	–
308.09 K, 9920 kPa	1435.07	–
308.09 K, 12380 kPa	1436.81	–
308.09 K, 14840 kPa	1438.55	–
308.09 K, 17300 kPa	1440.27	–
308.09 K, 19760 kPa	1441.96	–
308.09 K, 22210 kPa	1443.64	–
308.09 K, 24670 kPa	1445.32	–
308.09 K, 27130 kPa	1446.94	–
308.09 K, 29590 kPa	1448.61	–
308.09 K, 32050 kPa	1450.21	–
308.09 K, 34510 kPa	1451.8	–
308.09 K, 36970 kPa	1453.43	–
308.09 K, 39430 kPa	1454.99	–
308.09 K, 41880 kPa	1456.59	–
308.09 K, 44340 kPa	1458.14	–
308.09 K, 46800 kPa	1459.69	–
308.09 K, 49260 kPa	1461.21	–
308.09 K, 51720 kPa	1462.74	–
308.09 K, 54180 kPa	1464.26	–
308.09 K, 56640 kPa	1465.8	–
308.09 K, 59100 kPa	1467.28	–
313.15 K, 100 kPa	1422.99	1194.5
313.15 K, 5000 kPa	1426.56	–
313.15 K, 5010 kPa	–	1211.5
313.15 K, 7460 kPa	1428.4	–
313.15 K, 9920 kPa	1430.14	–
313.15 K, 10010 kPa	–	1228.7
313.15 K, 12380 kPa	1431.97	–
313.15 K, 14840 kPa	1433.7	–
313.15 K, 17300 kPa	1435.41	–
313.15 K, 19760 kPa	1437.1	–
313.15 K, 19960 kPa	–	1261.1
313.15 K, 22210 kPa	1438.8	–
313.15 K, 24670 kPa	1440.5	–
313.15 K, 27130 kPa	1442.16	–
313.15 K, 29590 kPa	1443.8	–
313.15 K, 32050 kPa	1445.44	–
313.15 K, 34510 kPa	1447.05	–
313.15 K, 36970 kPa	1448.67	–
313.15 K, 39430 kPa	1450.26	–
313.15 K, 41880 kPa	1451.88	–
313.15 K, 44340 kPa	1453.41	–
313.15 K, 46800 kPa	1455.01	–
313.15 K, 49260 kPa	1456.51	–
313.15 K, 51720 kPa	1458.07	–
313.15 K, 54180 kPa	1459.64	–
313.15 K, 56640 kPa	1461.15	–
313.15 K, 59100 kPa	1462.71	–
313.15 K, 59730 kPa	–	1373.5
313.15 K, 98970 kPa	–	1466.4
313.15 K, 150890 kPa	–	1573.2
318.14 K, 100 kPa	1418.06	–
318.14 K, 5000 kPa	1421.63	–
318.14 K, 7460 kPa	1423.41	–
318.14 K, 9920 kPa	1425.23	–
318.14 K, 12380 kPa	1427	–
318.14 K, 14840 kPa	1428.76	–
318.14 K, 17300 kPa	1430.5	–
318.14 K, 19760 kPa	1432.21	–
318.14 K, 22210 kPa	1433.93	–
318.14 K, 24670 kPa	1435.62	–
318.14 K, 27130 kPa	1437.31	–
318.14 K, 29590 kPa	1439.01	–
318.14 K, 32050 kPa	1440.66	–
318.14 K, 34510 kPa	1442.31	–
318.14 K, 36970 kPa	1443.93	–
318.14 K, 39430 kPa	1445.59	–
318.14 K, 41880 kPa	1447.2	–
318.14 K, 44340 kPa	1448.84	–
318.14 K, 46800 kPa	1450.43	–
318.14 K, 49260 kPa	1452.03	–
318.14 K, 51720 kPa	1453.64	–
318.14 K, 54180 kPa	1455.23	–
318.14 K, 56640 kPa	1456.83	–
318.14 K, 59100 kPa	1458.39	–
323.14 K, 100 kPa	1413.69	–
323.14 K, 5000 kPa	1417.31	–
323.14 K, 7460 kPa	1419.14	–
323.14 K, 9920 kPa	1420.97	–
323.14 K, 12380 kPa	1422.8	–
323.14 K, 14840 kPa	1424.57	–
323.14 K, 17300 kPa	1426.35	–
323.14 K, 19760 kPa	1428.11	–
323.14 K, 22210 kPa	1429.82	–
323.14 K, 24670 kPa	1431.56	–
323.14 K, 27130 kPa	1433.26	–
323.14 K, 29590 kPa	1434.96	–
323.14 K, 32050 kPa	1436.63	–
323.14 K, 34510 kPa	1438.32	–
323.14 K, 36970 kPa	1439.98	–
323.14 K, 39430 kPa	1441.63	–
323.14 K, 41880 kPa	1443.28	–
323.14 K, 44340 kPa	1444.91	–
323.14 K, 46800 kPa	1446.54	–
323.14 K, 49260 kPa	1448.18	–
323.14 K, 51720 kPa	1449.79	–
323.14 K, 54180 kPa	1451.4	–
323.14 K, 56640 kPa	1453.01	–
323.14 K, 59100 kPa	1454.62	–
323.15 K, 100 kPa	–	1172.6
323.15 K, 5050 kPa	–	1190.2
323.15 K, 10030 kPa	–	1207.8
323.15 K, 19940 kPa	–	1241
323.15 K, 59810 kPa	–	1355.9
323.15 K, 99220 kPa	–	1450.8
323.15 K, 150840 kPa	–	1557.4
328.2 K, 100 kPa	1408.32	–
328.2 K, 5000 kPa	1412.04	–
328.2 K, 7460 kPa	1413.97	–
328.2 K, 9920 kPa	1415.75	–
328.2 K, 12380 kPa	1417.61	–
328.2 K, 14840 kPa	1419.44	–
328.2 K, 17300 kPa	1421.25	–
328.2 K, 19760 kPa	1423.05	–
328.2 K, 22210 kPa	1424.84	–
328.2 K, 24670 kPa	1426.58	–
328.2 K, 27130 kPa	1428.34	–
328.2 K, 29590 kPa	1430.04	–
328.2 K, 32050 kPa	1431.76	–
328.2 K, 34510 kPa	1433.46	–
328.2 K, 36970 kPa	1435.15	–
328.2 K, 39430 kPa	1436.83	–
328.2 K, 41880 kPa	1438.52	–
328.2 K, 44340 kPa	1440.15	–
328.2 K, 46800 kPa	1441.79	–
328.2 K, 49260 kPa	1443.46	–
328.2 K, 51720 kPa	1445.11	–
328.2 K, 54180 kPa	1446.72	–
328.2 K, 56640 kPa	1448.35	–
328.2 K, 59100 kPa	1449.96	–
